Here are results for 7 molecules from article PMC11358443, “Polymodal K^+ channel modulation contributes to dual analgesic and anti-inflammatory actions of traditional botanical medicines” (Communications Biology, 2024).

For assay [1], the target named is T1, Kv1.1 (Homo sapiens, UniProt Q09470). The assay is described as follows: TEVC electrophysiology, Xenopus oocytes expressing Kv1.1. It is filed as cell-based. As to conditions: 100 µM; for Slope / V0.5 Normalized tail current / V0.5 non-normalized tail current: paired control in same table. As for the experimental part:
(§1) We generated human potassium channel cRNA transcripts with the mMessage mMachine kit (Thermo Fisher Scientific, Waltham, MA, USA) according to manufacturer’s instructions, after vector linearization, from cDNA sub-cloned into expression vectors (pTLNx, pXOOM and pMAX). We injected Xenopus laevis oocytes (Xenoocyte, Dexter, MI, USA) with the channel cRNAs (0.5–10 ng) and incubated the oocytes at 16 °C for 1–4 days prior to electrophysiological recording.
(§2) We performed TEVC at 20–23 °C with an OC-725C amplifier (Warner Instruments, Hamden, CT, USA) and pClamp10 software. Chemicals for recording and oocyte storage solutions were from Sigma-Aldrich (St. Louis, MO). Bath solution contained (in mM): 96 NaCl, 4 KCl, 1 MgCl2, 1 CaCl2, 10 HEPES (pH 7.6). Pipettes were 1–2 MΩ resistance when filled with 3 M KCl. We recorded currents in response to voltage pulses between −120 mV or −80 mV and +40 mV at 10 mV intervals from a holding potential of −80 mV, to yield current–voltage relationships and examine activation kinetics. We recorded and analyzed data using Clampfit (Molecular Devices, Sunnyvale, CA, USA) and Graphpad Prism software (GraphPad, San Diego, CA, USA), stating values as mean ± SEM. We calculated the voltage dependence of activation (V0.5) by measuring tail currents at a voltage pulse of −30 mV (Kv7) or −50 mV (Kv1), then fitted the tail current/voltage relationship with a single Boltzmann function:1 g=(A1−A2)/{1+exp[V1/2−V/Vs]}y+A2 where g is the normalized tail conductance, A1 is the initial value at −∞, A2 is the final value at +∞, V1/2 is the half-maximal voltage of activation and Vs the slope factor. We fitted activation and deactivation kinetics with single exponential functions.

The next assay has as its system TREK-1. To be noted: read-out: TREK-1 activation EC50; cited from earlier work.
The target of assay [2] is T1, Kv1.1. The arrangement: method as in PMID 33093824. As to conditions: cited from earlier work.
Assay [3] addresses T2, Kv7.5 (Homo sapiens, UniProt Q9NR82). On the set-up: method as in PMID 35997997. As to conditions: cited from earlier work.
In assay [4] the target is T2, Kv7.5. The assay is described as follows: TEVC electrophysiology, Xenopus oocytes expressing Kv7.5. As to conditions: 100 µM. In kind it is cell-based. As for the experimental part: as §1, §2
The subject of a further assay is C57BL/6 mice. The arrangement: method as in Abbott et al., 2021 Front. Physiol. 12:777057. As to conditions: 5 mg/kg morphine; ref Abbott et al., 2021 Front. Physiol. 12:777057; cited from earlier work.

For orientation: EC50 means the concentration giving half of the maximal effect.

T2 sequence (Q9NR82 whole entry): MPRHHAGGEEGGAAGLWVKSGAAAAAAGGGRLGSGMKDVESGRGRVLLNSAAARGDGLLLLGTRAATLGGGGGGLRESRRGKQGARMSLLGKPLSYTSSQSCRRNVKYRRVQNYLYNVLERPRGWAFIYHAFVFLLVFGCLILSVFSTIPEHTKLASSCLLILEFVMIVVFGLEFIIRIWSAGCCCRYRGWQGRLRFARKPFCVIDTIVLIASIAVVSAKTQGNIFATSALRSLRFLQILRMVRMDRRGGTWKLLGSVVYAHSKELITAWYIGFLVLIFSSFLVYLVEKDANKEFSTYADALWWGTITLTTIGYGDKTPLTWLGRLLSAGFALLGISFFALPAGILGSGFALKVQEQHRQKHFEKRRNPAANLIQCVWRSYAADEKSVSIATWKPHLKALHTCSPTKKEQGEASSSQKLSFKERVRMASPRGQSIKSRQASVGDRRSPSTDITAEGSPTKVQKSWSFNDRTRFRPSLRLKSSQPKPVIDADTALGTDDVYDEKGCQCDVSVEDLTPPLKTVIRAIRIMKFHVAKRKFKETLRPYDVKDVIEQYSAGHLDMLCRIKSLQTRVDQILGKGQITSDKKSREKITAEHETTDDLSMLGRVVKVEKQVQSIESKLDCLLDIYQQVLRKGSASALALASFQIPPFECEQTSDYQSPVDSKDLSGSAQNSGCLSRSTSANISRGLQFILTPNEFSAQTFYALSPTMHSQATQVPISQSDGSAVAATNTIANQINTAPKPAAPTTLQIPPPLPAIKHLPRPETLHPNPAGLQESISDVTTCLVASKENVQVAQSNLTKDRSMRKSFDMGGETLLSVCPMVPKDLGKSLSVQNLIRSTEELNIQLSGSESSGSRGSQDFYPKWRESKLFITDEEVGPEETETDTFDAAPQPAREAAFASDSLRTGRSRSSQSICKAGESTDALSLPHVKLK
T1 sequence (Q09470 whole entry): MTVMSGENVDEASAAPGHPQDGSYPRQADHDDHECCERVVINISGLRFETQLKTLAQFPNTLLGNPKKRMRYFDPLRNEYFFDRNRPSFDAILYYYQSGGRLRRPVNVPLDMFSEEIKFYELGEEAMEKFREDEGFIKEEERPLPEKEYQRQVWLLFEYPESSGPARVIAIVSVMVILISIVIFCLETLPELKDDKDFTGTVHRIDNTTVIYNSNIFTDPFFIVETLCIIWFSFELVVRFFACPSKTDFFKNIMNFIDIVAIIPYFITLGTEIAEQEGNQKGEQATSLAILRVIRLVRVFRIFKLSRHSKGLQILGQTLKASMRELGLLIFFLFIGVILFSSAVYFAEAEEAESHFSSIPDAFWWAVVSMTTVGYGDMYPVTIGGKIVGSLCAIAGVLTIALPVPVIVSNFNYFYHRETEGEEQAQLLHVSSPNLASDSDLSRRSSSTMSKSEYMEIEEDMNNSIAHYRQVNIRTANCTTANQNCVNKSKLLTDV

For the molecule `Oc1cc(O)c2c(c1)OC(c1ccc(O)c(O)c1)C(O)C2` (single isomer, unassigned; (+)) [catechin hydrate, (+)-Catechin hydrate], at Kv1.1 [1], the Slope worked out at 6.10 ± 0.15 mV, the “V0.5 Normalized tail current” value was -37.70 ± 0.45 mV and the “V0.5 non-normalized tail current” value is -39.60 ± 0.63 mV.

With `c1ccc(-c2nnn[nH]2)c(Nc2cccc3c2CCCC3)c1` [BL-1249, (5,6,7,8-tetrahydro-naphthalen-1-yl)-[2-(1H-tetrazol-5-yl)-phenyl]-amine], the EC50 in the assay with TREK-1 is 1.5 µM.

Turning to `CS(=O)(=O)Nc1ccc(C(=O)NCc2ccc(Cl)cc2Cl)cc1` [ML335], the 50% effective concentration (EC50) in the assay with TREK-1 was 14 µM.

Regarding `Cc1cc(Cl)ccc1OCCNC(=O)c1cccs1` [ML402], in the assay on TREK-1, the EC50 was 14 µM.

Take `O=C(O)c1cc(O)c(O)c(O)c1` [gallic acid]: the “effect on voltage dependence of Kv1.1” value at Kv1.1 [2] is on record as “negative-shift”. For the same molecule, at Kv7.5 [3], the “activity on Kv7.5 compared with tannic acid” value is “active but less efficacious”.

For the molecule `O=C(OC[C@H]1OC(O)[C@@](O)(COC(=O)c2cc(O)c(O)c(O)c2)[C@@H]1O)c1cc(O)c(O)c(O)c1` (stereo partly drawn) [hamamelitannin], at Kv1.1 [1], the “effect on EM of oocytes expressing Kv1.1” value is “hyperpolarized the EM”, the “effect on Kv1.1” value is on record as “negative-shifted the voltage dependence of Kv1.1 activation”, the Slope is on record as 6.51 ± 0.73 mV and the “V0.5 Normalized tail current” value is -35.11 ± 1.66 mV. Further, on Kv1.1 [1], the “V0.5 non-normalized tail current” value was -36.25 ± 1.77 mV. Further, on Kv7.5 [4], the “activity on Kv7.5 expressed in oocytes” value was “inactive”. In addition, at Kv7.5 [4] (control 7.66 ± 0.33), the Slope turned out to be 7.57 ± 0.17 mV. Moreover, the “V0.5 Normalized tail current” value at Kv7.5 [4] (control -48.15 ± 1.14) is -47.96 ± 0.99 mV. Moreover, on Kv7.5 [4] (control -50.27 ± 1.37), the “V0.5 non-normalized tail current” value was -49.87 ± 1.44 mV.

With `CN1CC[C@]23c4c5ccc(O)c4O[C@H]2[C@@H](O)C=C[C@H]3[C@H]1C5` [morphine], the “attenuation of early phase paw-licking” value in the assay with C57BL/6 mice is 40%.
